Structures are written as SMILES.

The test relates to AMPARs. Kind of test: Inhibition of native AMPAR responses in cultured hippocampal neurons. To be noted: cyclothiazide 10 μM. Type of test: cell-based, rat. The procedure: FIGURE 8 The effect of compound 6 on peak and steady-state responses of native NMDARs, AMPARs, and GABARs. (A) Examples of traces obtained from cultured hippocampal neurons. […] Error bars represent SD from five independent measurements. Asterisks mark significance at the level of P < 0.05 (Paired t-test).
FIGURE 9 The effect of compound 6 on native NMDARs, AMPARs, and GABARs. (A) Example of traces obtained from cultured hippocampal neurons. Compound 6 (10 or 30 μM) was co-applied with NMDA (100 μM), AMPA (100 μM), and GABA (5 μM) (duration of agonist and steroid application is indicated by filled and open bars, respectively). […]
Electrophysiological experiments were performed on HEK293 cells transfected with plasmids encoding rat GluN1-1a/GluN2A-D and GFP genes as described previously, ([Petrovic et al., 2005]; [Cais et al., 2008]; [Korinek et al., 2010]) or on primary hippocampal neurons prepared from P0–P1 rats, plated on collagen/poly-D-lysine-coated glass coverslips at a density of ∼50,000 cells/cm^2, and grown in Neurobasal A medium with B27 Supplement (Gibco). […] Agonist-induced responses were low-pass filtered at 2 kHz, digitally sampled at 5 kHz, and analyzed with pClamp software version 10.5 (Molecular Devices). […] Action potentials were recorded in the current-clamp mode from primary hippocampal mass-culture neurons at 14–15 days in vitro. […]

As for `C[C@@]12CCC[C@H]1[C@@H]1CC[C@@H]3C[C@H](NC(=O)[C@@H](N)CC(=O)O)CC[C@]3(C)[C@H]1CC2` [Compound 6, (S)-3-amino-4-(((3R,5R,8S,9S,10S,13S,14S)-10,13-dimethylhexadecahydro-1H-cyclopenta[a]phenanthren-3-yl)amino)-4-oxobutanoic acid], the “effect on amplitude of AMPA-induced responses” value (AMPA 100 μM) is “only little affected”. The potency estimated from few doses (estimated from single dose (30 μM), Hill coefficient fixed at 1.2, 100 μM AMPA, read-out: IC50 at AMPAR responses (estimate)) was 276 ± 179 µM.
